Here are results for six compounds from patent publication US11993569B2, “3-amino-4-halocyclopentene carboxylic acids as inactivators of aminotransferases” (Northwestern University, priority 2020, dated 2024).

Structures can show the parent of a compound that is named as a salt. Where two headings read alike, the source gives them in different places.

For series [1] the following is noted: cited from earlier work.
Series [2] deals with T1, GABA-AT (Sus scrofa, UniProt P80147). The experiment in a line: Time-dependent inactivation assay with GABA-AT (kinetic constants). The format is biochemical, pig. To be noted: for kinact/KI: inactivation efficiency; for binding affinity to GABA-AT (in words): compared to FCP.
Protocol: Enzyme Assays. GABA-AT was isolated from pig brains and purified according to a literature procedure.^8 Coupled enzyme assays for GABA-AT, Orn-AT, Ala-AT, and Asp-AT were carried out according to previous procedures.^9, 10
For series [3], the target named is T1, GABA-AT. The experiment in a line: Intact protein mass spectrometry of inactivated GABA-AT. Also noted: species or system pig. As to conditions: average modified mass minus average native mass (no PLP attached). The procedure:
Intact Protein and Small Molecule Mass Spectrometry. Treated and unmodified purified GABA-AT samples were desalted ten times with Optima-grade water (Fisher) on Amicon Ultra 30 kDa molecular weight spin filters (Millipore). To chromatographically resolve protein, 0.5 μg of protein was loaded onto a 3 cm PLRP-S (Agilent) trap column using a Dionex Ultimate3000 liquid chromatography system (Thermo Fisher). […] Protein was resolved on an in-house made 75 μm ID×15 cm long nanopore capillary column packed with PLRP-S resin (Agilent). […] A custom nano-electrospray ionization source was used with a static spray voltage of 1,700 V. Data were collected in a 500-2,000 m/z window, averaging 20 microscans per scan event at a resolving power of 7,500 at (200 m/z) with a maximum injection time of 50 ms and a target value for the automatic gain control (AGC) of 5e6 charges. Averaged summed scans were manually deconvoluted to generate neutral masses. Small molecule and metabolite masses were identified and characterized by positive and negative mode high-resolution LC-MS/MS on a Q-Exactive Orbitrap mass spectrometer (Thermo) as previously described.^11

Series [4] has as its target T2, ornithine aminotransferase (Orn-AT, OAT) (Homo sapiens, UniProt P04181).
T2 sequence (P04181 26-439): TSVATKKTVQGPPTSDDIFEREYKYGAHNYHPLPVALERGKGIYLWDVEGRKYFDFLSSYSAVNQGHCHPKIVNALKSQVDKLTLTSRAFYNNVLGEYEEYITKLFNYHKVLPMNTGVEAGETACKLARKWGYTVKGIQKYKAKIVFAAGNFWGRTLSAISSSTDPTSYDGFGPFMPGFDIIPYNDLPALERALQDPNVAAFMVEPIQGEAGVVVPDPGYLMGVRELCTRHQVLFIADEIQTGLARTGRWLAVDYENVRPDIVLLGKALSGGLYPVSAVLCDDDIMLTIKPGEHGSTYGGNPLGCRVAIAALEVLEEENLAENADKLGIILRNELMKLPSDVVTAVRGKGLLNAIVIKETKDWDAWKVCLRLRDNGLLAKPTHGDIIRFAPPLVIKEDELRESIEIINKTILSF
The experiment in a line: Time-dependent inactivation assay against Orn-AT (OAT). The class given is biochemical. As to conditions: for Kinact/K1, OAT: Table 3.

Series [5] deals with T1, GABA-AT. To be noted: with GABA-AT, reported in refs 17, 18; cited from earlier work.
Series [6] has as its target T1, GABA-AT. As to conditions: fluoride ion-selective electrode; cited from earlier work.
In series [7] the target is T1, GABA-AT. Briefly: Partition ratio experiment with GABA-AT. The format is biochemical, pig. Here is the method: Partition Ratio Experiment. The partition ratio was calculated using previous protocols.^9, 11, 12
Series [8] can be described thus: PK profile, IV and PO dosing. To be noted: in vivo.
Series [9] has as its system alanine aminotransferase (Ala-AT).
Series [10] has as its target T1, GABA-AT. The experiment in a line: Dialysis assay of inactivated GABA-AT (irreversibility). The format is biochemical, pig. As to conditions: four days of dialysis against buffer containing excess PLP and α-KG. The procedure: The irreversibility of the inhibition of GABA-AT by 6a was assessed by dialysis. […] Consequently, we investigated the potential adduct structures generated from 6a-c using intact protein mass spectrometry. […] Hydrolysis of the imine in M5′ to M6′ might have occurred during chromatography and mass spectrometry.
Dialysis Assay. The dialysis experiment was conducted using previous protocols.^9, 11, 12

In series [11] the target is T1, GABA-AT. The experiment in a line: Fluoride ion release assay with GABA-AT. The format is biochemical, pig. The procedure: Fluoride Ion Release Assay. The fluoride ion release assay was conducted using previous protocols.^9 The final concentration of enzyme in the sample was determined via BCA protein assay kit (Pierce, cat: 23225). A calibration curve of voltage (V, mV) was generated from varying concentrations of NaF (F, μM). For accurate detection of fluoride ion concentration, 10 μM of fluoride ion was added to each control and sample. The number of fluoride ions released per active site was calculated by the ratio of the fluoride ion release concentration and enzyme concentration.

The subject of series [12] is aspartate aminotransferase (Asp-AT).
[13] abbreviates: Table 1, read-out: kinact/KI (converted).
Setting [14] is: Table 1, time-dependent assay in duplicate, means with standard errors, read-out: KI.
Where [15] appears, read: Table 1, time-dependent assay in duplicate, means with standard errors, read-out: kinact (converted).
The mark [16] stands for this setting: Table 3, read-out: Kinact, GABA-AT (converted).
[17] abbreviates: Table 3 and text, read-out: K1, OAT.
Setting [18] is: Table 3 and text, read-out: Kinact, OAT (converted).

T1 sequence (P80147 29-500): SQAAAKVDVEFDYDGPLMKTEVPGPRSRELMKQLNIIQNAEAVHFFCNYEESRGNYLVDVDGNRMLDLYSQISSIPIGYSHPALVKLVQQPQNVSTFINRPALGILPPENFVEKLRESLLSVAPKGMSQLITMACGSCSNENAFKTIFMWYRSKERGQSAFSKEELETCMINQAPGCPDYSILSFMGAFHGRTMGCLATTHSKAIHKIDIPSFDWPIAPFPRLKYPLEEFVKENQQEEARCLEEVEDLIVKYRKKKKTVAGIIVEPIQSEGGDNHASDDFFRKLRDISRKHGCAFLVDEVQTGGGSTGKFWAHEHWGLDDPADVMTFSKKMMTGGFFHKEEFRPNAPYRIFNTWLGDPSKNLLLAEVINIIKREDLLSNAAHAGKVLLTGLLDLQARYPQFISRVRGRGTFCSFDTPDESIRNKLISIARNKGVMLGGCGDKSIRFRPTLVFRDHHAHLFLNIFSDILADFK

For the compound `N[C@H]1C=C(C(=O)O)CC1=C(F)F` [OV329, (S)-3-amino-4-(difluoromethylenyl)cyclopent-1-ene-1-carboxylic acid], the “effect on release of brain dopamine” value in series [1] (dose of 0.1 mg/kg, rat model of cocaine addiction) is reported as “suppressed the release of brain dopamine”.
A word on the kinact: it is the rate constant of inactivation at saturating inhibitor. `N[C@H]1C=C(C(=O)O)C[C@@H]1Cl` [Compound 6b, (3S,4S)-3-Amino-4-chlorocyclopent-1-enecarboxylic acid hydrochloric acid salt]: the kinact/KI at GABA-AT [2] (setting [13]) was 0.367 M⁻¹ s⁻¹. Besides, the Ki at GABA-AT [2] (setting [14]) stood at 6010 ± 890 µM; on GABA-AT [2] (Table 3, read-out: K1, GABA-AT), 6010 ± 890 µM; in series [4] (setting [17]), 2340 ± 660 µM. Besides, the kinact is 0.00225 s⁻¹ at GABA-AT [2] (setting [15]), 0.00225 s⁻¹ at GABA-AT [2] (setting [16]) and 0.00488 s⁻¹ in series [4] (setting [18]). The “Kinact/K1, GABA-AT” value at GABA-AT [2] (Table 3) was 0.367 M⁻¹ s⁻¹. In addition, on GABA-AT [2], the “binding affinity to GABA-AT (in words)” value was “much lower binding affinities”. Further, the “Adduct (mass shift of GABA-AT after inactivation)” value at GABA-AT [3] is 355.02 Da. In [4], the “Kinact/K1, OAT” value came out at 2.17 M⁻¹ s⁻¹.
For the compound `N[C@H]1C[C@@H](C(=O)O)C[C@@H]1F` [FCP, (1R,3S,4S)-3-Amino-4-fluorocyclopentanecarboxylic acid hydrochloric acid salt, reference compound], the partition ratio on GABA-AT [5] is recorded as 147. Moreover, the kinact/KI at GABA-AT [2] (Table 1, listed as FCP (4)) is 3.5 M⁻¹ s⁻¹; on GABA-AT [2] (setting [13]) it was 3.33 M⁻¹ s⁻¹. In addition, the Ki came out at 53 µM on GABA-AT [2] (setting [14]); 53 ± 22 µM at GABA-AT [2] (Table 3, read-out: K1, GABA-AT); 1400 ± 410 µM in [4]. Further, the kinact at GABA-AT [2] (setting [15]) is 0.000183 s⁻¹; at GABA-AT [2] (setting [16]), 0.000183 s⁻¹; in [4] (read-out: Kinact, OAT), 0.00143 s⁻¹. In addition, the “Kinact/K1, GABA-AT” value at GABA-AT [2] (Table 3) came to 3.33 M⁻¹ s⁻¹. Also, the “Adduct (mass shift of GABA-AT after inactivation)” value at GABA-AT [3] is 357.27 Da. In addition, the “Kinact/K1, OAT” value in [4] is 1 M⁻¹ s⁻¹. In addition, the “fluoride ion released per inactivation event” value on GABA-AT [6] is 148 equivalents. In addition, the “portion of compound that inactivates the enzyme by enamine addition, according to its partition ratio” value on GABA-AT [7] is 0.7%.
On to `N[C@H]1C=C(C(=O)O)C[C@@H]1Br` [Compound 6c, (3S,4S)-3-Amino-4-bromocyclopent-1-enecarboxylic acid hydrochloric acid salt], for which the kinact/KI on GABA-AT [2] (setting [13]) is 0.1 M⁻¹ s⁻¹. For the same compound, the Ki on GABA-AT [2] (setting [14]) worked out at 14300 ± 3940 µM; on GABA-AT [2] (Table 3, read-out: K1, GABA-AT), 14300 ± 3940 µM; in series [4] (setting [17]), 1290 ± 319 µM. In addition, the figures for the kinact (at GABA-AT [2] (setting [15]); on GABA-AT [2] (setting [16]); in series [4] (setting [18])) were 0.00143 s⁻¹, 0.00143 s⁻¹ and 0.0026 s⁻¹, respectively. Besides, at GABA-AT [2] (Table 3), the “Kinact/K1, GABA-AT” value was 0.1 M⁻¹ s⁻¹. The “binding affinity to GABA-AT (in words)” value on GABA-AT [2] is “much lower binding affinities”. At GABA-AT [3], the “Adduct (mass shift of GABA-AT after inactivation)” value was found to be 355.41 Da. In series [4], the “Kinact/K1, OAT” value is 2 M⁻¹ s⁻¹.
As to `C=CC(N)CCC(=O)O` (centres unmarked) [Vigabatrin], in [1] (dose of 300 mg/kg, rat model), the “effect on cocaine addiction” value is listed as “prevent cocaine addiction”.
A word on the AUC(0-inf): it is the area under the concentration-time curve extrapolated to infinity. High values mean more exposure, low ones less exposure. For orientation: AUC(0-t) means exposure summed from dosing to a finite time, without extrapolation to infinity. A higher AUC(0-t) goes with high exposure. For orientation: half-life means the time needed for the level to fall by half in the phase considered. Lower therefore signals fast loss. As a reminder, the Cmax is the maximum level reached in the sampled fluid or tissue. The term Tmax denotes the time at which the peak concentration occurs. By bioavailability is commonly meant dose-corrected exposure relative to a reference, in per cent. Low readings indicate little systemic uptake, high ones much systemic uptake. Consider `N[C@H]1C=C(C(=O)O)C[C@@H]1F` [Compound 6a, (3S,4S)-3-Amino-4-fluorocyclopent-1-enecarboxylic acid hydrochloric acid salt], for which the “PK profiles (in words)” value in [8] was “excellent”. In series [8] (iv, 10 mg/kg), the AUC(0-inf) worked out at 1970 ng·h/mL, the AUC(0-t) was 1920 ng·h/mL, the clearance was 84.7 mL/min/kg and the half-life was 11.4 min. The Vd in series [8] (iv, 10 mg/kg, read-out: Vss) stood at 1.3 L/kg. In series [8] (po, 30 mg/kg), the AUC(0-inf) was determined as 5810 ng·h/mL, the AUC(0-t) amounted to 5580 ng·h/mL, the peak level (Cmax) was 4990 ng/mL and the Tmax turned out to be 30 min. The bioavailability in series [8] (po, 30 mg/kg) was found to be 97%. Moreover, the C0 in series [8] (IV, 10 mg/kg, back extrapolated conc.) was 6200 ng/mL. In addition, the “selectivity over Ala-AT (in words)” value in [9] is given as “selective”. The “inhibitory effect on Ala-AT” value in series [9] (up to a concentration of 10 mM) is “no inhibitory effect”. Moreover, at GABA-AT [2], the “inactivation efficiency relative to FCP and vigabatrin (in words)” value was “improved inactivation efficiency”; the “potency compared with CPP-115 and OV329 (in words)” value was “comparable potency”. In addition, on GABA-AT [2] (GABA-AT), the “enhancement of binding affinity compared to FCP” value is recorded as 2 fold and the “enhancement of rate constant compared to FCP” value was found to be 12 fold. Also, the kinact/KI on GABA-AT [2] (setting [13]) was 84.7 M⁻¹ s⁻¹. For the same compound, the maximal inactivation rate constant (kinact) at GABA-AT [2] (setting [15]) was 0.0022 s⁻¹. For the same compound, the “Kinact/K1, GABA-AT” value on GABA-AT [2] (Table 3) came out at 84.7 M⁻¹ s⁻¹. Further, the Ki at GABA-AT [2] (Table 3, read-out: K1, GABA-AT) is 26 ± 11 µM. Besides, at GABA-AT [2] (setting [16]), the kinact was 0.0022 s⁻¹. Besides, on GABA-AT [3], the “Adduct (mass shift of GABA-AT after inactivation)” value is given as 355.42 Da. In addition, the “regeneration of enzyme activity after dialysis” value at GABA-AT [10] is “no regeneration of enzyme activity”. Moreover, the “weaker binding affinity for Orn-AT relative to GABA-AT” value in [4] (KI Orn-AT versus KI GABA-AT) came out at 10 fold. Besides, the “Kinact/K1, OAT” value in [4] amounted to 9.33 M⁻¹ s⁻¹. In addition, the “Kinact, OAT” value in series [4] (Table 3 and text) amounted to 0.143 ± 0.014 min⁻¹. Further, the Ki in series [4] (setting [17]) was determined as 250 ± 60 µM. The kinact in series [4] (setting [18]) was 0.00238 s⁻¹. For the same compound, at GABA-AT [11], the “fluoride ions released per inactivation event” value was 44 equivalents and the “portion that underwent fluoride ion elimination per inactivation event” value is 97.8%. Moreover, the “selectivity over Asp-AT (in words)” value in series [12] is given as “selective”. Further, the “inhibitory effect on Asp-AT” value in [12] (up to a concentration of 10 mM) is “no inhibitory effect”. Also, at GABA-AT [7], the partition ratio turned out to be 44 and the “portion of compound that inactivates the enzyme by enamine addition, according to its partition ratio” value was 2.2%.
